Legend:
Ba/F3-EPOR = experiment: MTT assay for cell proliferation; format: cell-based, Murine; settings: Mus musculus; Ba/F3-EPOR; IL-3-dependent growth; MTT 72 h; read-out: IC50(μM) ± SD, tumor cell proliferation
Description: (§1) For in vitro inhibition assays, cells were seeded in 96-well culture plates with a density of 15,000–20,000 cells/well after the cells reached 70–90% confluence. […] MTT (3-(4, 5-dimethylthiazol-2-yl)-2, 5-diphenyltetrazolium bromide) (Cat. No. 1334GR001; BioFroxx) assay was conducted in order to examine viability. The IC50 values were fitted using GraphPad Prism 7.0.

[1] = tested on: Ba/F3-EPOR-JAK2^V617F cells; experiment: Ba/F3-EPOR-JAK2^V617F malignancy mouse model; settings: 30 mg/kg bid p.o.
Molm-13 = experiment: MTT assay for cell proliferation; format: cell-based; settings: Homo sapiens; Molm-13; FLT3-ITD expression; MTT 72 h; read-out: IC50(μM) ± SD, tumor cell proliferation
Description: as §1

Ba/F3-FLT3-ITD = experiment: MTT assay for cell proliferation; format: cell-based, Murine; settings: Mus musculus; Ba/F3-FLT3-ITD; MTT 72 h; read-out: IC50(μM) ± SD, tumor cell proliferation
Description: as §1

MV-4-11 = experiment: MTT assay for cell proliferation; format: cell-based; settings: Homo sapiens, MV4-11; MV-4-11; FLT3-ITD expression; MTT 72 h; read-out: IC50(μM) ± SD, tumor cell proliferation
Description: as §1

Ba/F3-EPOR-JAK2^V617F = experiment: MTT assay for cell proliferation; format: cell-based, Murine; settings: Mus musculus; Ba/F3-EPOR-JAK2^V617F; MTT 72 h; read-out: IC50(μM) ± SD, tumor cell proliferation
Description: as §1

Ba/F3-JAK2^WT = experiment: MTT assay for cell proliferation; format: cell-based, Murine; settings: Mus musculus; Ba/F3-JAK2^WT; IL-3-dependent growth; MTT 72 h; read-out: IC50(μM) ± SD, tumor cell proliferation
Description: as §1

Ba/F3-FLT3-ITD^D835V = experiment: MTT assay for cell proliferation; format: cell-based, Murine; settings: Mus musculus; Ba/F3-FLT3-ITD^D835V; MTT 72 h; read-out: IC50(μM) ± SD, tumor cell proliferation
Description: as §1

Ba/F3-JAK2^V617F = experiment: MTT assay for cell proliferation; format: cell-based, Murine; settings: Mus musculus; Ba/F3-JAK2^V617F; MTT 72 h; read-out: IC50(μM) ± SD, tumor cell proliferation
Description: as §1

HEL = experiment: MTT assay for cell proliferation; format: cell-based; settings: Homo sapiens, JAK2V617F, MTT 72 h, read-out: IC50(μM) ± SD, tumor cell proliferation
Description: as §1

Ba/F3-FLT3-ITD^F691 = experiment: MTT assay for cell proliferation; format: cell-based, Murine; settings: Mus musculus; Ba/F3-FLT3-ITD^F691; MTT 72 h; read-out: IC50(μM) ± SD, tumor cell proliferation
Description: as §1

Bioavailability [2] = settings: dog, in vivo; dogs; data not shown
Ba/F3-JAK2^V617F cells = experiment: Ba/F3-JAK2^V617F disease model
Bioavailability [3] = settings: rat, in vivo; rats; data not shown
JAK2^V617F = JAK2^V617F bone marrow transplantation (BMT) myelofibrosis model; format: in vivo, BALB/c mice; settings: 30 mg/kg bid p.o.

Compound: Cc1cnc(Nc2ccc(OCCN3CCCC3)cc2)nc1Nc1cccc(S(=O)(=O)NC(C)(C)C)c1 [Fedratinib, reference compound]
- IC50 (Ba/F3-EPOR): 0.97 ± 0.23 µM
- spleen suppression rate ([1]; 16 days): -40.23%
- median survival time ([1]; vehicle 19 days): 22 days
- IC50 (Molm-13): 0.17 ± 0.01 µM
- IC50 (Ba/F3-FLT3-ITD): 0.21 ± 0.05 µM
- IC50 (MV-4-11): 0.26 ± 0.11 µM
- IC50 (Ba/F3-EPOR-JAK2^V617F): 1.71 ± 0.04 µM
- IC50 (Ba/F3-JAK2^WT): 0.68 ± 0.12 µM
- IC50 (Ba/F3-FLT3-ITD^D835V): 0.37 ± 0.04 µM
- IC50 (Ba/F3-JAK2^V617F): 0.61 ± 0.13 µM
- IC50 (HEL): 0.77 ± 0.36 µM
- IC50 (Ba/F3-FLT3-ITD^F691): 0.74 ± 0.15 µM
- bioavailability (Bioavailability [2]): 37%
- inhibition of the spleen growth (Ba/F3-JAK2^V617F cells; 30 mg/kg bid p.o., 22 days, figure prints it with a minus sign over Spleen Weight (mg)): 67.44%
- median survival (Ba/F3-JAK2^V617F cells; 30 mg/kg bid p.o., vehicle 25 days): 28 days
- body weight during treatment (Ba/F3-JAK2^V617F cells; any dose): no obvious body weight decrease
- bioavailability (Bioavailability [3]): 19%
- inhibition of splenomegaly (JAK2^V617F; figure prints it with a minus sign over Spleen Wight (mg)): 90.56%
- median survival time (JAK2^V617F; vehicle 133.5 days): > 180 days

From PMC8901636, “Preclinical studies of Flonoltinib Maleate, a novel JAK2/FLT3 inhibitor, in treatment of JAK2^V617F-induced myeloproliferative neoplasms” (Blood Cancer Journal, 2022)
